# According to ChEMBL document CHEMBL3991601, “The target landscape of clinical kinase drugs” (Science, 2017):
# Calls of active or inactive are those of the source. Rule as the data show it, for most assays here: actives have a measured Kd and inactives only a lower limit.
# Key:
# [1] = molecular target: T1, Serine/threonine-protein kinase ICK (Homo sapiens, UniProt Q9UPZ9)
# T1 sequence (Q9UPZ9 whole entry): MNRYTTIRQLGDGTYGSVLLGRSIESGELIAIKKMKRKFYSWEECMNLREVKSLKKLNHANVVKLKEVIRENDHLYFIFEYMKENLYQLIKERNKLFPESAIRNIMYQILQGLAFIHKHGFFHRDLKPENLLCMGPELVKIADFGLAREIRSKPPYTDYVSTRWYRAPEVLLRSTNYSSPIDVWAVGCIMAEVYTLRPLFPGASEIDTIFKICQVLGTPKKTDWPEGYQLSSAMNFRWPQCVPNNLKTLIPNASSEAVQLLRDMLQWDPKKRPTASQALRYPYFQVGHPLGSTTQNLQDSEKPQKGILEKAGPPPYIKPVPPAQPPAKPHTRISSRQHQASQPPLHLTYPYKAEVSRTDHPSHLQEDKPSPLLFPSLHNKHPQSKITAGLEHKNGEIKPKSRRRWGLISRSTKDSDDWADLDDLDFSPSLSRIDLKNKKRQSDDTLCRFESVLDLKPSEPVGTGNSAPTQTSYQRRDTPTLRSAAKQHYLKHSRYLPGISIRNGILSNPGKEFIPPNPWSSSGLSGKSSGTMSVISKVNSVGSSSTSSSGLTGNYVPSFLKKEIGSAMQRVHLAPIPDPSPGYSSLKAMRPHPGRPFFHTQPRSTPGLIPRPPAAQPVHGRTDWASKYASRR
# [2] = molecular target: T2, Dual specificity mitogen-activated protein kinase kinase 5 (Homo sapiens, UniProt Q13163)
# T2 sequence (Q13163 whole entry): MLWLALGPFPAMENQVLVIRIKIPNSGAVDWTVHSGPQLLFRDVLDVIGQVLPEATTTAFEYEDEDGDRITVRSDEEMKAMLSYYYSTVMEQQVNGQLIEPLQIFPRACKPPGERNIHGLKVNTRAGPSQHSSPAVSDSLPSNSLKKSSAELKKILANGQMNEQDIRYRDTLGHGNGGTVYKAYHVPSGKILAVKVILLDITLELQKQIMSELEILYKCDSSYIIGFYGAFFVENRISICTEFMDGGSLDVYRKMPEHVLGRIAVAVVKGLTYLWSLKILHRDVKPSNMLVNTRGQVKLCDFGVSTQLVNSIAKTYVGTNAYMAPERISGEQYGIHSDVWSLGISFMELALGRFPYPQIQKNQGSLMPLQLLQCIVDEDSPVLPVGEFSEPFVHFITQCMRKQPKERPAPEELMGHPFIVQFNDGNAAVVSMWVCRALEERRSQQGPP
# [3] = molecular target: Structural maintenance of chromosomes protein 2 (Homo sapiens, UniProt O95347)
# Structural maintenance of chromosomes protein 2, sequence (O95347 whole entry): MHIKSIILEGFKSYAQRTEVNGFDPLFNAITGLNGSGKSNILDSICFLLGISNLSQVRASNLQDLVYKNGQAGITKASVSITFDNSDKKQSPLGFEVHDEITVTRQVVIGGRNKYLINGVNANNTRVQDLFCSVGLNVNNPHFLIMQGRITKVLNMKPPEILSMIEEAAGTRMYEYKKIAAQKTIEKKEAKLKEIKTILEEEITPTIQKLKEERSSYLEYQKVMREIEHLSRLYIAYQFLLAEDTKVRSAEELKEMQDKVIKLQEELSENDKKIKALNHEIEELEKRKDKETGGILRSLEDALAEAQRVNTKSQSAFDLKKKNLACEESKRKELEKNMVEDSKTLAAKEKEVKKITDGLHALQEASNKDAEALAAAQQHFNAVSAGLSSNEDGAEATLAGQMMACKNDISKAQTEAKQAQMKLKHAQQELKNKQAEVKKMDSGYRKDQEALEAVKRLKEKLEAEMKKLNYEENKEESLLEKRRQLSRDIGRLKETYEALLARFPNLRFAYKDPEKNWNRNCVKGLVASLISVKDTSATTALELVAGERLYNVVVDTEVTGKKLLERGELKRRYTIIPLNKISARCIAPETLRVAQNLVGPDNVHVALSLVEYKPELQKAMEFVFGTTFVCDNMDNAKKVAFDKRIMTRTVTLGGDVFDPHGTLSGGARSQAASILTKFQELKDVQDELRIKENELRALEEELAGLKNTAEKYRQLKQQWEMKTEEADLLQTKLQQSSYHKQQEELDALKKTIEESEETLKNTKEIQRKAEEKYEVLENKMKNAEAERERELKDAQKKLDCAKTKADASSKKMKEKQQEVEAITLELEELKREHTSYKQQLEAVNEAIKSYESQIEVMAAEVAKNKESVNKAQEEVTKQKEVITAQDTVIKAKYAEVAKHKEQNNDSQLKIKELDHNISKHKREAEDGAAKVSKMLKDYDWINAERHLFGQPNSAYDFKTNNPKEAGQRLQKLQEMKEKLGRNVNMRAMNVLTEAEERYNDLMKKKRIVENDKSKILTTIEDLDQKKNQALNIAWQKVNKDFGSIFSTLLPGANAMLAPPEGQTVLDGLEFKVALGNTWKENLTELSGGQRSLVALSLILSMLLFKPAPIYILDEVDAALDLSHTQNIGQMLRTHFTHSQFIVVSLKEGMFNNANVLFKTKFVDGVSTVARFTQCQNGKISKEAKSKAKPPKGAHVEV
# [4] = molecular target: GTP-binding nuclear protein Ran (Homo sapiens, UniProt P62826)
# ADP/ATP translocase 3 = molecular target: T3, ADP/ATP translocase 3 (Homo sapiens, UniProt P12236)
# T3 sequence (P12236 whole entry): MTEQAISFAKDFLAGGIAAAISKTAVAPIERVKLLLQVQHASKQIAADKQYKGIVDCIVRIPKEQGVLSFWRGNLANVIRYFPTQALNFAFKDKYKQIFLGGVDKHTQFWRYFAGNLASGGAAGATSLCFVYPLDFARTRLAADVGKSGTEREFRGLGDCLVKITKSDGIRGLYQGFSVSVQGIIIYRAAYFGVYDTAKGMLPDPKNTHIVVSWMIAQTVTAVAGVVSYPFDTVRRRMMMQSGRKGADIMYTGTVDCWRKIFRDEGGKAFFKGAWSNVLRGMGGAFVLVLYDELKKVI
# [5] = molecular target: Ribosomal protein S6 kinase beta-1 (Homo sapiens, UniProt P23443)
# Ribosomal protein S6 kinase beta-1, sequence (P23443 whole entry): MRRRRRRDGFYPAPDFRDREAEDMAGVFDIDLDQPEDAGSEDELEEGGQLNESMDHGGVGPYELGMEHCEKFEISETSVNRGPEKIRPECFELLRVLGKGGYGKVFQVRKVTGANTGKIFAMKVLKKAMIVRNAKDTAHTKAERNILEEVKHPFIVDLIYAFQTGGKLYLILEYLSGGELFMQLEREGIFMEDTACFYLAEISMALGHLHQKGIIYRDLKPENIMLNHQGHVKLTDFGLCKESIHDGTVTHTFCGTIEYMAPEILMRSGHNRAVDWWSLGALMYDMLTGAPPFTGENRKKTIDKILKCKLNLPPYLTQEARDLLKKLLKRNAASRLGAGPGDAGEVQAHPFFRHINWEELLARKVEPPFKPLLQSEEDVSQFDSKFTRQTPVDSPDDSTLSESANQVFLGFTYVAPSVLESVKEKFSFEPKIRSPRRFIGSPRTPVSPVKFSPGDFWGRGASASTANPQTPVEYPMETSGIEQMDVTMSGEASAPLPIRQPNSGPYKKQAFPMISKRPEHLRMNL
# [6] = molecular target: T4, Mitogen-activated protein kinase kinase kinase 2 (Homo sapiens, UniProt Q9Y2U5)
# T4 sequence (Q9Y2U5 whole entry): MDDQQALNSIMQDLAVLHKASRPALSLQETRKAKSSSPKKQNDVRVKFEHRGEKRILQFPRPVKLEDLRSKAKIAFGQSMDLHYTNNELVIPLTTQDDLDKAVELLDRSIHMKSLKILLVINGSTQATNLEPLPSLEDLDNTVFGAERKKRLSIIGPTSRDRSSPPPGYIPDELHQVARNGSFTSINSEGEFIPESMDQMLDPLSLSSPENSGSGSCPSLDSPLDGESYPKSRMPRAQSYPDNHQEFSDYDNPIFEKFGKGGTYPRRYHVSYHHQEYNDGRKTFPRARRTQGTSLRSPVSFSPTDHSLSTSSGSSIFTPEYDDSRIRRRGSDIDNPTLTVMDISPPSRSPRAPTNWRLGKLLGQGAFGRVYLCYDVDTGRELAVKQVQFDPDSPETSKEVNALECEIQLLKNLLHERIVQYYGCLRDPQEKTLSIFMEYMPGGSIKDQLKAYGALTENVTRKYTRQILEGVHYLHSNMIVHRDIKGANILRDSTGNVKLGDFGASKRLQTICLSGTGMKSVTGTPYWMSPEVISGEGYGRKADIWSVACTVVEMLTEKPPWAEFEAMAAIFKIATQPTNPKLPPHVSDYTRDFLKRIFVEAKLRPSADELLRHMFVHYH
# Activin receptor type-1B = molecular target: T5, Activin receptor type-1B (Homo sapiens, UniProt P36896)
# T5 sequence (P36896 whole entry): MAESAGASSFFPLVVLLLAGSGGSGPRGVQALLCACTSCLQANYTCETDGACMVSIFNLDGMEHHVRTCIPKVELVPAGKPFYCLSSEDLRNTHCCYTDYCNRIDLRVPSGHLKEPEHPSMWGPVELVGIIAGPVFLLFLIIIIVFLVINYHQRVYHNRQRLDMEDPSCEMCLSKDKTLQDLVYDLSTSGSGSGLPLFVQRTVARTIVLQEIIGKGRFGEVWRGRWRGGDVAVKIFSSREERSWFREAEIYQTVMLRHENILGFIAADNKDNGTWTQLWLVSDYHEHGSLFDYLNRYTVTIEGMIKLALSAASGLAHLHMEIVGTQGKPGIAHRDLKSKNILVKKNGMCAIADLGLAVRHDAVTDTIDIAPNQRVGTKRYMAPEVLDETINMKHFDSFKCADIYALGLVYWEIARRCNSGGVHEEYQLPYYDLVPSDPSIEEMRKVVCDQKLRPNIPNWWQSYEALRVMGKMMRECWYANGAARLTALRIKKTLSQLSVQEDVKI
# [7] = molecular target: Casein kinase I isoform epsilon (Homo sapiens, UniProt P49674)
# Casein kinase I isoform epsilon, sequence (P49674 whole entry, canonical isoform): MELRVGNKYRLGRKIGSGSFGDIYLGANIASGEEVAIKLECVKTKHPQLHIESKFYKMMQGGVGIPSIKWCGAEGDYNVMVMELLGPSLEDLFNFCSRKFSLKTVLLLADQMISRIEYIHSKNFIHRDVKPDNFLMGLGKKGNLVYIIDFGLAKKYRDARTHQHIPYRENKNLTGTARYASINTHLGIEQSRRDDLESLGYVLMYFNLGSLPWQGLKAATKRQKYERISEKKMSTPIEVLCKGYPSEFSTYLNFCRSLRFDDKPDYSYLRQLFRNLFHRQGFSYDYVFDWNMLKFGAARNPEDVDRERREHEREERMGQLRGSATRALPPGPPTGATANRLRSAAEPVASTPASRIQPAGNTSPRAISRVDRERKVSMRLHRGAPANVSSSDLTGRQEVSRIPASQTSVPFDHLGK
# [8] = molecular target: Cyclin-dependent kinase 7 (Homo sapiens, UniProt P50613)
# Cyclin-dependent kinase 7, sequence (P50613 whole entry): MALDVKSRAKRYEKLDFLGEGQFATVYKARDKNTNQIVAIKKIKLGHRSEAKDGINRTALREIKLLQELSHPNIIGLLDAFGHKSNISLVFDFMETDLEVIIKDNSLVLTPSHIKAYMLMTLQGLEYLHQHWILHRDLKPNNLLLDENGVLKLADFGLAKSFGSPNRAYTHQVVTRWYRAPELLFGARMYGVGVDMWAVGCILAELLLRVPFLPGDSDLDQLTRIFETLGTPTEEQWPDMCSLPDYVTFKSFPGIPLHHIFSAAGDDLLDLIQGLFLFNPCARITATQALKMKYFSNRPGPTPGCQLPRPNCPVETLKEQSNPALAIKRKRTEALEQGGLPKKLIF
# Also: in the data inactive means no Kd found up to 30 µM.
Kd [1],Kd [2],Kd [3],Kd [4],Kd (ADP/ATP translocase 3),Kd [5],Kd [6],Kd (Activin receptor type-1B),Kd [7],Kd [8],Structure (SMILES)
> 30 µM (inactive),> 30 µM (inactive),> 30 µM (inactive),> 30 µM (inactive),> 30 µM (inactive),> 30 µM (inactive),> 30 µM (inactive),> 30 µM (inactive),> 30 µM (inactive),> 30 µM (inactive),CC[C@@H]1C(=O)N(C)c2cnc(Nc3ccc(C(=O)N[C@H]4CC[C@H](N5CCN(CC6CC6)CC5)CC4)cc3OC)nc2N1C(C)C [VOLASERTIB]
> 30 µM (inactive),> 30 µM (inactive),> 30 µM (inactive),> 30 µM (inactive),> 30 µM (inactive),> 30 µM (inactive),> 30 µM (inactive),> 30 µM (inactive),> 30 µM (inactive),> 30 µM (inactive),C[C@@H]1CN(Cc2ccc(F)cc2)[C@@H](C)CN1C(=O)c1cc2c(C(=O)C(=O)N(C)C)cn(C)c2cc1Cl [TALMAPIMOD]
> 30 µM (inactive),> 30 µM (inactive),> 30 µM (inactive),> 30 µM (inactive),> 30 µM (inactive),0.015 µM (active),> 30 µM (inactive),> 30 µM (inactive),> 30 µM (inactive),> 30 µM (inactive),Cn1cc(-c2ccc(F)c(C(F)(F)F)c2)nc1C1CCN(c2ncnc3[nH]ncc23)CC1 [LY-2584702]
> 30 µM (inactive),> 30 µM (inactive),> 30 µM (inactive),> 30 µM (inactive),> 30 µM (inactive),> 30 µM (inactive),> 30 µM (inactive),> 30 µM (inactive),> 30 µM (inactive),> 30 µM (inactive),CC(C)Nc1cc(-c2c[nH]c(C(=O)N[C@H](CO)c3cccc(Cl)c3)c2)c(Cl)cn1 [ULIXERTINIB]
> 30 µM (inactive),> 30 µM (inactive),> 30 µM (inactive),> 30 µM (inactive),> 30 µM (inactive),> 30 µM (inactive),> 30 µM (inactive),> 30 µM (inactive),> 30 µM (inactive),> 30 µM (inactive),CNC(=O)c1ccc(C)c(-n2c(C)cc(OCc3ccc(F)cc3F)c(Br)c2=O)c1 [PH-797804]
> 30 µM (inactive),11.4 µM (active),> 30 µM (inactive),> 30 µM (inactive),> 30 µM (inactive),> 30 µM (inactive),> 30 µM (inactive),> 30 µM (inactive),> 30 µM (inactive),> 30 µM (inactive),Cc1ccc(NC(=O)c2ccc(CN3CC[C@H](N(C)C)C3)c(C(F)(F)F)c2)cc1Nc1nccc(-c2cncnc2)n1 [BAFETINIB]
> 30 µM (inactive),> 30 µM (inactive),> 30 µM (inactive),> 30 µM (inactive),> 30 µM (inactive),> 30 µM (inactive),> 30 µM (inactive),> 30 µM (inactive),> 30 µM (inactive),> 30 µM (inactive),COc1ccc(-c2ccc3c(N4CCOC[C@@H]4C)nc(N4CCOC[C@@H]4C)nc3n2)cc1CO [AZD-8055]
> 30 µM (inactive),> 30 µM (inactive),> 30 µM (inactive),> 30 µM (inactive),> 30 µM (inactive),> 30 µM (inactive),> 30 µM (inactive),0.425 µM (active),> 30 µM (inactive),> 30 µM (inactive),O=C(O)[C@]1(Cc2cccc(Nc3nccs3)n2)CC[C@@H](Oc2cccc(Cl)c2F)CC1 [MK-5108]
> 30 µM (inactive),> 30 µM (inactive),> 30 µM (inactive),> 30 µM (inactive),> 30 µM (inactive),> 30 µM (inactive),> 30 µM (inactive),> 30 µM (inactive),> 30 µM (inactive),> 30 µM (inactive),CNC(=O)c1ccc(-c2cnc3ncc(Cc4ccc5ncccc5c4)n3n2)cc1F [CAPMATINIB]
> 30 µM (inactive),> 30 µM (inactive),> 30 µM (inactive),> 30 µM (inactive),> 30 µM (inactive),> 30 µM (inactive),> 30 µM (inactive),> 30 µM (inactive),> 30 µM (inactive),> 30 µM (inactive),COc1cc(CCc2cc(NC(=O)c3ccc(N4C[C@@H](C)N[C@@H](C)C4)cc3)n[nH]2)cc(OC)c1 [AZD-4547]

Structure (SMILES),Kd [1],Kd [2],Kd [3],Kd [4],Kd (ADP/ATP translocase 3),Kd [5],Kd [6],Kd (Activin receptor type-1B),Kd [7],Kd [8]
CN1CCC(COc2cnc(-c3cccc(Cn4nc(-c5cccc(C#N)c5)ccc4=O)c3)nc2)CC1 [TEPOTINIB],> 30 µM (inactive),> 30 µM (inactive),> 30 µM (inactive),> 30 µM (inactive),> 30 µM (inactive),> 30 µM (inactive),> 30 µM (inactive),> 30 µM (inactive),> 30 µM (inactive),> 30 µM (inactive)
COC(=O)[C@@]1(O)C[C@H]2O[C@]1(C)n1c3ccccc3c3c4c(c5c6ccccc6n2c5c31)C(=O)NC4 [K-252A],> 30 µM (inactive),2.03 µM (active),> 30 µM (inactive),> 30 µM (inactive),> 30 µM (inactive),> 30 µM (inactive),4.12 µM (active),15.3 µM (active),> 30 µM (inactive),> 30 µM (inactive)
Cc1ccc(-n2nc(C(C)(C)C)cc2NC(=O)NCc2cc(F)ccc2Oc2ccc3c(cnn3CCO)c2)cc1 [PEXMETINIB],> 30 µM (inactive),> 30 µM (inactive),> 30 µM (inactive),> 30 µM (inactive),> 30 µM (inactive),> 30 µM (inactive),> 30 µM (inactive),> 30 µM (inactive),> 30 µM (inactive),> 30 µM (inactive)
